pEC50: −log10 of the molar value.
Tested on: CellSensor® HRE-bla HCT-116 stably transfected reporter cell line
Assay: HIF/HRE reporter assay
Format: cell-based
Settings: Homo sapiens, inhibition of activated HIF signaling response, hypoxic conditions induced with deferoxamine (DFO), 24 h incubation, blue/green emission ratio, read-out: Evaluation
Method: Inhibition of an activated HIF signaling response under chemically-induced hypoxic conditions due to compound treatment was determined using the CellSensor® HRE-bla HCT-116 stably transfected reporter cell line from Invitrogen according to the manufacturer's instructions.
Cells were maintained as described previously and seeded into 384-well, clear-bottom plates (Corning 3712) at 15000 cells/well in 32 μl assay medium (Opti-MEM [Invitrogen], 0.5% FBS, 100 U/ml penicillin, 100 μg/ml streptomycin, 0.1 mM non-essential amino acids [NEAA], 1 mM sodium pyruvate, 5 mM HEPES [pH 7.3]). Following a 2 h incubation period, compounds (4 μl) were subsequently added to the cells at 10× concentrations in 5% DMSO and incubated under normal conditions for 30 min. To induce hypoxic conditions, 4 μl of a 2 mM deferoxamine (DFO) solution was added to the cells followed by 24 h incubation under standard assay conditions (as described). Control wells included wells containing only medium (no cells) and wells treated with 0.5% DMSO instead of compound.
Prior to the readout, the Substrate Loading Solution was prepared as described in the manufacturer's protocol and 10 μl added to each well. Following a further 2 h incubation period at room temperature and in the dark, fluorescence was measured at two wavelengths (blue channel: ex. 409 nm, em. 460 nm; green channel: ex. 409 nm, em. 530 nm) on a PerkinElmer Envision HTS. For the analysis, the average signal of the cell-free wells at 460 nm and 530 nm was first subtracted from the blue and green channel data, respectively. The blue/green emission ratios were then calculated for each well, dividing the background-corrected blue emission values by the background-corrected green emission values. […] values were determined from these ratios using GraphPad Prism (Prism 5, GraphPad software, Inc.).

pEC50 | Compound
< 6.00 | CC(=O)N1CCN(Cc2c(-c3cccc([N+](=O)[O-])c3)nc3ccc(-c4ccccc4)cn23)CC1 [Example 2, 1-(4-((2-(3-nitrophenyl)-6-phenylimidazo[1,2-a]pyridin-3-yl)methyl)piperazin-1-yl)ethanone]
> 6.30 | N#Cc1ccc(-c2nc3ccc(-c4ccccc4)cn3c2CN2CCCNCC2)s1 [Example 21, 5-(3-((1,4-diazepan-1-yl)methyl)-6-phenylimidazo[1,2-a]pyridin-2-yl)thiophene-2-carbonitrile]
> 6.30 | O=C1CN(Cc2c(-c3ccc([N+](=O)[O-])cc3)nc3ccc(-c4ccccc4)cn23)CCN1 [Example 13, 4-((2-(4-nitrophenyl)-6-phenylimidazo[1,2-a]pyridin-3-yl)methyl)piperazin-2-one]
6.00 to 6.30 | CCCN1CCN(Cc2c(-c3ccc([N+](=O)[O-])cc3)nc3ccc(-c4ccccc4)cn23)CC1 [Example 5, 2-(4-nitrophenyl)-6-phenyl-3-((4-propylpiperazin-1-yl)methyl)imidazo[1,2-a]pyridine]
6.00 to 6.30 | N#Cc1ccc(-c2nc3ccc(-c4ccccc4)cn3c2CN2CCCNCC2)cn1 [Example 16, 5-(3-((1,4-diazepan-1-yl)methyl)-6-phenylimidazo[1,2-a]pyridin-2-yl)picolinonitrile]
< 6.00 | N#Cc1ccc(-c2nc3ccc(-c4ccccc4)cn3c2CN2CCNC(=O)C2)cc1 [Example 33, 4-(3-((3-oxopiperazin-1-yl)methyl)-6-phenylimidazo[1,2-a]pyridin-2-yl)benzonitrile]
< 6.00 | N#Cc1ccc(-c2nc3ccc(-c4ccc(C(N)=O)cc4)cn3c2CN2CCCNCC2)cc1 [Example 42, 4-(3-((1,4-diazepan-1-yl)methyl)-2-(4-cyanophenyl)imidazo[1,2-a]pyridin-6-yl)benzamide]
< 6.00 | N#Cc1ccc(-c2nc3ccc(-c4ccccc4)cn3c2CN2CCNC(=O)C2)s1 [Example 35, 5-(3-((3-oxopiperazin-1-yl)methyl)-6-phenylimidazo[1,2-a]pyridin-2-yl)thiophene-2-carbonitrile]
> 6.30 | Clc1ccc(-c2nc3ccc(-c4ccccc4)cn3c2CN2CCCNCC2)cc1 [Example 14, 3-((1,4-diazepan-1-yl)methyl)-2-(4-chlorophenyl)-6-phenylimidazo[1,2-a]pyridine]
> 6.30 | N#Cc1ccc(-c2nc3ccc(-c4ccsc4)cn3c2CN2CCCNCC2)cc1 [Example 44, 4-(3-((1,4-diazepan-1-yl)methyl)-6-(thiophen-3-yl)imidazo[1,2-a]pyridin-2-yl)benzonitrile]
> 6.30 | CN1CCCN(Cc2c(-c3ccc([N+](=O)[O-])cc3)nc3ccc(-c4ccccc4)cn23)CC1 [Example 12, 3-((4-methyl-1,4-diazepan-1-yl)methyl)-2-(4-nitrophenyl)-6-phenylimidazo[1,2-a]pyridine]
> 6.30 | O=[N+]([O-])c1ccc(-c2nc3ccc(-c4ccccc4)cn3c2CN2CCNCC2)cc1 [Example 1, 2-(4-nitrophenyl)-6-phenyl-3-(piperazin-1-ylmethyl)imidazo[1,2-a]pyridine]
< 6.00 | CS(=O)(=O)c1ccc(-c2nc3ccc(-c4ccccc4)cn3c2CN2CCCNCC2)cc1 [Example 8, 3-((1,4-diazepan-1-yl)methyl)-2-(4-(methylsulfonyl)phenyl)-6-phenylimidazo[1,2-a]pyridine]
> 6.30 | Cc1ccccc1-c1ccc2nc(-c3ccc(C#N)cc3)c(CN3CCCNCC3)n2c1 [Example 25, 4-(3-((1,4-diazepan-1-yl)methyl)-6-(o-tolyl)imidazo[1,2-a]pyridin-2-yl)benzonitrile]
< 6.00 | COc1ccc(-c2nc3ccc(-c4ccccc4)cn3c2CN2CCNC(=O)C2)cc1 [Example 30, 4-((2-(4-methoxyphenyl)-6-phenylimidazo[1,2-a]pyridin-3-yl)methyl)piperazin-2-one]
< 6.00 | O=C1CN(Cc2c(-c3ccc(Cl)cc3)nc3ccc(-c4ccccc4)cn23)CCN1 [Example 32, 4-((2-(4-chlorophenyl)-6-phenylimidazo[1,2-a]pyridin-3-yl)methyl)piperazin-2-one]
< 6.00 | N#Cc1ccc(-c2nc3ccc(-c4cnco4)cn3c2CN2CCCNCC2)cc1 [Example 39, 4-(3-((1,4-diazepan-1-yl)methyl)-6-(oxazol-5-yl)imidazo[1,2-a]pyridin-2-yl)benzonitrile]
> 6.30 | O=[N+]([O-])c1ccc(-c2nc3ccc(-c4ccccc4)cn3c2CN2CCCNCC2)cc1 [Example 4, 3-((1,4-diazepan-1-yl)methyl)-2-(4-nitrophenyl)-6-phenylimidazo[1,2-a]pyridine]

pEC50 | Compound
6.00 to 6.30 | c1ccc(-c2ccc3nc(-c4ccccc4)c(CN4CCCNCC4)n3c2)cc1 [Example 19, 3-((1,4-diazepan-1-yl)methyl)-2,6-diphenylimidazo[1,2-a]pyridine]
> 6.30 | Cc1ccc(-c2nc3ccc(-c4ccccc4)cn3c2CN2CCCNCC2)cc1 [Example 17, 3-((1,4-diazepan-1-yl)methyl)-6-phenyl-2-(p-tolyl)imidazo[1,2-a]pyridine]
> 6.30 | Cc1cccc(-c2ccc3nc(-c4ccc(C#N)cc4)c(CN4CCCNCC4)n3c2)c1 [Example 24, 4-(3-((1,4-diazepan-1-yl)methyl)-6-(m-tolyl)imidazo[1,2-a]pyridin-2-yl)benzonitrile]
< 6.00 | NC(=O)c1ccc(-c2nc3ccc(-c4ccccc4)cn3c2CN2CCCNCC2)cc1 [Example 10, 4-(3-((1,4-diazepan-1-yl)methyl)-6-phenylimidazo[1,2-a]pyridin-2-yl)benzamide]
< 6.00 | N#Cc1ccc(-c2nc3ccc(-c4cccnc4)cn3c2CN2CCCNCC2)cc1 [Example 29, 4-(3-((1,4-diazepan-1-yl)methyl)-6-(pyridin-3-yl)imidazo[1,2-a]pyridin-2-yl)benzonitrile]
6.00 to 6.30 | Cn1cccc1-c1ccc2nc(-c3ccc(C#N)cc3)c(CN3CCCNCC3)n2c1 [Example 38, 4-(3-((1,4-diazepan-1-yl)methyl)-6-(1-methyl-1H-pyrrol-2-yl)imidazo[1,2-a]pyridin-2-yl)benzonitrile]
< 6.00 | N#Cc1ccc(-c2nc3ccc(-c4cn[nH]c4)cn3c2CN2CCCNCC2)cc1 [Example 37, 4-(3-((1,4-diazepan-1-yl)methyl)-6-(1H-pyrazol-4-yl)imidazo[1,2-a]pyridin-2-yl)benzonitrile]
> 6.30 | CN1CCN(Cc2c(-c3ccc([N+](=O)[O-])cc3)nc3ccc(-c4ccccc4)cn23)CC1 [Example 7, 3-((4-methylpiperazin-1-yl)methyl)-2-(4-nitrophenyl)-6-phenylimidazo[1,2-a]pyridine]
> 6.30 | COc1ccc(-c2nc3ccc(-c4ccccc4)cn3c2CN2CCCNCC2)cc1 [Example 18, 3-((1,4-diazepan-1-yl)methyl)-2-(4-methoxyphenyl)-6-phenylimidazo[1,2-a]pyridine]
> 6.30 | N#Cc1ccc(-c2ccc3nc(-c4ccc(C#N)cc4)c(CN4CCCNCC4)n3c2)cc1 [Example 43, 4,4′-(3-((1,4-diazepan-1-yl)methyl)imidazo[1,2-a]pyridine-2,6-diyl)dibenzonitrile]
> 6.30 | CN1CCCN(Cc2c(-c3ccc(Cl)cc3)nc3ccc(-c4ccccc4)cn23)CC1 [Example 31, 2-(4-chlorophenyl)-3-((4-methyl-1,4-diazepan-1-yl)methyl)-6-phenylimidazo[1,2-a]pyridine]
6.00 to 6.30 | Cc1cc(-c2ccc3nc(-c4ccc(C#N)cc4)c(CN4CCCNCC4)n3c2)ccn1 [Example 28, 4-(3-((1,4-diazepan-1-yl)methyl)-6-(2-methylpyridin-4-yl)imidazo[1,2-a]pyridin-2-yl)benzonitrile]
> 6.30 | N#Cc1ccc(-c2nc3ccc(-c4ccccc4)cn3c2CN2CCCNCC2)cc1 [Example 9, 4-(3-((1,4-diazepan-1-yl)methyl)-6-phenylimidazo[1,2-a]pyridin-2-yl)benzonitrile]
> 6.30 | Cc1ccc(-c2ccc3nc(-c4ccc(C#N)cc4)c(CN4CCCNCC4)n3c2)cc1 [Example 23, 4-(3-((1,4-diazepan-1-yl)methyl)-6-(p-tolyl)imidazo[1,2-a]pyridin-2-yl)benzonitrile]
> 6.30 | N#Cc1csc(-c2nc3ccc(-c4ccccc4)cn3c2CN2CCCNCC2)c1 [Example 20, 5-(3-((1,4-diazepan-1-yl)methyl)-6-phenylimidazo[1,2-a]pyridin-2-yl)thiophene-3-carbonitrile]
> 6.30 | CN1CCCN(Cc2c(-c3ccc(C#N)cc3)nc3ccc(-c4ccccc4)cn23)CC1 [Example 34, 4-(3-((4-methyl-1,4-diazepan-1-yl)methyl)-6-phenylimidazo[1,2-a]pyridin-2-yl)benzonitrile]
> 6.30 | COc1ccc(-c2ccc3nc(-c4ccc(C#N)cc4)c(CN4CCCNCC4)n3c2)cc1 [Example 41, 4-(3-((1,4-diazepan-1-yl)methyl)-6-(4-methoxyphenyl)imidazo[1,2-a]pyridin-2-yl)benzonitrile]
